In BindingDB's records for patent US20250353858 (BEONE MEDICINES I GMBH, 2025):

Key:
[1] = molecular target: Diacylglycerol kinase alpha (Homo sapiens, UniProt P23743); assay: Biochemical DGK IC50 Assay
Procedure: (§1) Enzymatic reactions of DGKζ, DGKα and DGKδ were performed using ADP-Glo assay with lipid micelle substrate. […] Full length DGKα (D21-10BG, SignalChem) and full length DGKδ (D23-10G, SignalChem) were purchased. […] The resulted product was resuspended in buffer containing 25 mM HEPES pH 7.0, 0.5 mM EDTA and 160 mM Octyl β-D glucopyranoside by vigorous mixing and ultrasonic (IID, Scientz).Final concentration in reaction Enzyme Enzyme (nM) ATP (μM) DAG (μM)DGKα 7.5 140 80DGKδ 10 140 80DGKζ 0.5 140 80The inhibition activities testing for the compound disclosed herein were carried out at room temperature in assay buffer containing 50 mM HEPES, 10 mM MgCl2, 0.01% BSA, 0.1 mM Na3VO4, 0.005% Tween-20 and 0.01 mM CaCl2. […] 3 μL 2× enzyme solution was added to wells. […] After 1 hour reaction, 5 μL ADP-Glo reagent (Promga V9101) was added and incubated for 40 minutes. 10 μL Kinase Detection reagent was added and incubated for 30 minutes. Luminescence was measured on a microplate reader (PHERAstar FSX, BMG labtech). The IC50s are calculated based on inhibition of enzyme activity in the presence of increasing concentrations of compounds.

[2] = molecular target: Diacylglycerol kinase zeta (Homo sapiens, UniProt Q13574); assay: Biochemical DGK IC50 Assay
Sequence of Diacylglycerol kinase zeta (Q13574 as listed by the source): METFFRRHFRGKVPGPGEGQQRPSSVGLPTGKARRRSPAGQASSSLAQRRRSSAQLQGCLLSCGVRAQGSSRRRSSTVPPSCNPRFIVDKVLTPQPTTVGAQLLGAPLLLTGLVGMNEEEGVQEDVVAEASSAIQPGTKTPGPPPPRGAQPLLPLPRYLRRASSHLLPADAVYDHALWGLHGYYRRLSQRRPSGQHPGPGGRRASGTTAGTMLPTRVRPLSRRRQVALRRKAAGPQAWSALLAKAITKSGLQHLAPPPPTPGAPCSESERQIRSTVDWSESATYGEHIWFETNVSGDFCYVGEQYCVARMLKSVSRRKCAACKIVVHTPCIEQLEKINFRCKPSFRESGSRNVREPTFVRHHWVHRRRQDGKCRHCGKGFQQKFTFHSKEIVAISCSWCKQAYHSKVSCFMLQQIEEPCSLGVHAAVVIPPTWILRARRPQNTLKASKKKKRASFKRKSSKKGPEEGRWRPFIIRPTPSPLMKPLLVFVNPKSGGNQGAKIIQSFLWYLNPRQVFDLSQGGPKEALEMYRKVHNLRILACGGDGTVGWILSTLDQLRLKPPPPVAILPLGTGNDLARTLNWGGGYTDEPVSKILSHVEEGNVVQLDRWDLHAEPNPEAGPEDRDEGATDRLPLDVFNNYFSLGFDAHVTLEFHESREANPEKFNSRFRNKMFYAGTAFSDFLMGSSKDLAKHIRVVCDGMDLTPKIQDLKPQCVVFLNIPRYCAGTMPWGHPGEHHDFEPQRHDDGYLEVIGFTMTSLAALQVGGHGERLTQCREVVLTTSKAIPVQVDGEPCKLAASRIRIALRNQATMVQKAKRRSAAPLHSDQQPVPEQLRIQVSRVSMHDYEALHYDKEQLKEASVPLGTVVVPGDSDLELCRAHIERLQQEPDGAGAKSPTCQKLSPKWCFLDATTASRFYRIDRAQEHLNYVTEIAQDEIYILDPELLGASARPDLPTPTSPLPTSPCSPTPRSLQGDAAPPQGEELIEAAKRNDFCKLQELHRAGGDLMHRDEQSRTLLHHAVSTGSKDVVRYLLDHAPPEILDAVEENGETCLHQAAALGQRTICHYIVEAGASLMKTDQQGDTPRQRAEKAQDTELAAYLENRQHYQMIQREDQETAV
Procedure: as §1

Sequence of Diacylglycerol kinase alpha (P23743 whole entry): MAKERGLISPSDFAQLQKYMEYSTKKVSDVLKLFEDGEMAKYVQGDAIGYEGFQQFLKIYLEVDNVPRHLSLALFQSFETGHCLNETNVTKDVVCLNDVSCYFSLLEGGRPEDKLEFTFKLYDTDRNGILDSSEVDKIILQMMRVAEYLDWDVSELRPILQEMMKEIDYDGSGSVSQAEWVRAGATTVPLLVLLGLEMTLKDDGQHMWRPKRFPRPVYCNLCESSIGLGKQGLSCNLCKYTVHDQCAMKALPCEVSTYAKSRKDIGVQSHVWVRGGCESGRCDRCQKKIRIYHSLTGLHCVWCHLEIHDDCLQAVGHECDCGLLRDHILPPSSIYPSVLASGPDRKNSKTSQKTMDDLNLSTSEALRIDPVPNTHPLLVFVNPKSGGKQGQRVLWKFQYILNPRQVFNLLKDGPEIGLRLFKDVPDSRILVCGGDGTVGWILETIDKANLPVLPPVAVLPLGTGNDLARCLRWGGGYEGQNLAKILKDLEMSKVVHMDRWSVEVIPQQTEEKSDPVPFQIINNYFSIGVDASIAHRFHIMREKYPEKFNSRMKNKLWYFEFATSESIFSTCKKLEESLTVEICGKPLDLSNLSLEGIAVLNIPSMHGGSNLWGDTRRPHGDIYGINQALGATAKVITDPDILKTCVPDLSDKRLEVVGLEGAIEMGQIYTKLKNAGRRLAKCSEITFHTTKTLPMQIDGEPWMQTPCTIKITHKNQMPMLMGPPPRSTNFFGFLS

| IC50 [1] [µM] | IC50 [2] [µM] | SMILES |
| --- | --- | --- |
| > 10 |  | C[C@@H]1CC(c2cc(=O)n(C)c3cc(CC#N)nn23)CCN1[C@H](C)c1ccc2nccnc2c1 (stereo partly drawn) [US20250353858, Compound A33b] |
| 61.5 | 0.075 | CC(c1ccc2c(n1)OC(C)(C)CO2)N1C[C@H](C)N(c2cc(=O)n(C)c3cn(CC#N)nc23)C[C@H]1C (stereo partly drawn) [2-(7-((2S,5R)-4-(1-(3,3-dimethyl-2,3-dihydro-[1,4]dioxino[2,3-b]pyridin-6-yl)ethyl)-2,5-dimethylpiperazin-1-yl)-4-methyl-5-oxo-4,5-dihydro-2H-pyrazolo[4,3-b]pyridin-2-yl)acetonitrile] |
